# According to paper PMC3859723 (Biochemistry, 2013):
# What was measured:
# [1] = molecular target: R. sphaeroides cytochrome c oxidase (RsCcO) wild-type (Cereibacter sphaeroides, UniProt P33517+Q03736); test: biochemical; type: biochemical, Rhodobacter sphaeroides; conditions: for Shape of response in ligand titration: activation at low ligand concentration followed by inhibition at higher concentration
# RsCcO E101A mutant [2] = molecular target: T1, RsCcO E101A mutant (Cereibacter sphaeroides, UniProt P33517+Q03736, E101A); test: biochemical; parameters: species or system Rhodobacter sphaeroides
# T1 sequence (P33517 whole entry): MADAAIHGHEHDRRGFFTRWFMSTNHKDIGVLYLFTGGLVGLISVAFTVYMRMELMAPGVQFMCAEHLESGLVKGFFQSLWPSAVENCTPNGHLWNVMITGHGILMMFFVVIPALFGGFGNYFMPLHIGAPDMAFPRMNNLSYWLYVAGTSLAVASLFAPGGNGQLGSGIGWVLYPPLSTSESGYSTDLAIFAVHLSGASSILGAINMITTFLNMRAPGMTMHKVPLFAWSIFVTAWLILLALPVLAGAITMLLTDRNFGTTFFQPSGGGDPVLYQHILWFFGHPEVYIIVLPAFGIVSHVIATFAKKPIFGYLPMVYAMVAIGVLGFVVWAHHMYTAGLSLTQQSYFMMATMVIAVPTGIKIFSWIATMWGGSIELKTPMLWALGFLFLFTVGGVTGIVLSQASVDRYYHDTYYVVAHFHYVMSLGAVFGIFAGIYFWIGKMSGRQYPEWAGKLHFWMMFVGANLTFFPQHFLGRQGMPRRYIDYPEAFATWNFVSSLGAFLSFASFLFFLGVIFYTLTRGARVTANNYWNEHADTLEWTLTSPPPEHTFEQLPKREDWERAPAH
# T1 sequence (Q03736 26-303 E101A): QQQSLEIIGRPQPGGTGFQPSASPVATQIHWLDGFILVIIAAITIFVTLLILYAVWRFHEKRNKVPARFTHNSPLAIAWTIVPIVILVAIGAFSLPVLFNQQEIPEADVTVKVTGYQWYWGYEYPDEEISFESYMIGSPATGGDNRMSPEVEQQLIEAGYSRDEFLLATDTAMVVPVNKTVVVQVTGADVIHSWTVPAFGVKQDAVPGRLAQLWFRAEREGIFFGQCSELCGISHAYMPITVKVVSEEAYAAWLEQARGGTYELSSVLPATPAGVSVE
# RsCcO E101A mutant [3] = molecular target: T1, RsCcO E101A mutant; conditions: cited from earlier work
# Sequence of R. sphaeroides cytochrome c oxidase (RsCcO) wild-type (P33517 whole entry): as the sequence (P33517 whole entry) above
# Sequence of R. sphaeroides cytochrome c oxidase (RsCcO) wild-type (Q03736 26-303): as the sequence (Q03736 26-303 E101A) above, with A76E counted along it
compound,measurement,setting,value
"CC(=O)O[C@H]1C[C@@]2(C)[C@@H](C[C@@H](O)[C@H]3[C@@]4(C)CC[C@@H](O)[C@@H](C)[C@@H]4CC[C@@]32C)/C1=C(\CCC=C(C)C)C(=O)O [Fusidic acid, fusidic acid]",IC50,[1],3400 µM
same,Ki,[1],2500 µM
same,Shape of response in ligand titration,"[1]; WT, saturating cytochrome c",biphasic response
CC1=C(/C=C/C(C)=C/C=C/C(C)=C/C(=O)O)C(C)(C)CCC1 [retinoic acid],IC50,[1],1700 µM
same,Ki,[1],140 µM
same,Shape of response in ligand titration,"[1]; WT, saturating cytochrome c",biphasic response
same,IC50,RsCcO E101A mutant [2],190 µM
Nc1nc2c(ncn2[C@@H]2O[C@H](COP(=O)(O)OP(=O)(O)O)[C@@H](O)[C@H]2O)c(=O)[nH]1 [GDP],Effect on E101A mutant activity,RsCcO E101A mutant [3],very low stimulation and no inhibition of activity
NC(=O)c1ccc[n+]([C@@H]2O[C@H](COP(=O)([O-])OP(=O)(O)OC[C@H]3O[C@@H](n4cnc5c(N)ncnc54)[C@H](O)[C@@H]3O)[C@@H](O)[C@H]2O)c1 [NAD^+],Effect on RsCcO under low or high concentrations of cytochrome c,"[1]; WT, 0–30 μM cytochrome c",failed to affect RsCcO
same,Effect on RsCcO activity at maximal ligand concentration,"[1]; WT, saturating cytochrome c",no significant effect
C[C@]12CCC(=O)C=C1CC[C@@H]1[C@@H]2[C@@H](O)C[C@]2(C=O)[C@@H](C(=O)CO)CC[C@@H]12 [aldosterone],Effect on RsCcO under low or high concentrations of cytochrome c,"[1]; WT, 0–30 μM cytochrome c",failed to affect RsCcO
same,Effect on RsCcO activity at maximal ligand concentration,"[1]; WT, saturating cytochrome c",no significant effect
C[C@]12CC[C@@H]3c4ccc(O)cc4CC[C@H]3[C@@H]1CC[C@@H]2O [estradiol],Effect on RsCcO under low or high concentrations of cytochrome c,"[1]; WT, 0–30 μM cytochrome c",failed to affect RsCcO
same,Effect on RsCcO activity at maximal ligand concentration,"[1]; WT, saturating cytochrome c",no significant effect
cytochrome c: purified bovine heart cytochrome c used as the substrate,Km,"[1]; read-out: Km of cytochrome c, RsCcO WT and E101A, unchanged by DOC inhibition",~1 µM
C[C@]12CC[C@H]3[C@@H](CCC4=CC(=O)CC[C@@]43C)[C@@H]1CC[C@@H]2O [testosterone],Effect on RsCcO under low or high concentrations of cytochrome c,"[1]; WT, 0–30 μM cytochrome c",failed to affect RsCcO
same,Effect on RsCcO activity at maximal ligand concentration,"[1]; WT, saturating cytochrome c",no significant effect
C[C@]12CCC(=O)C=C1CC[C@@H]1[C@@H]2[C@@H](O)C[C@@]2(C)[C@H]1CC[C@]2(O)C(=O)CO [hydrocortisone],Effect on RsCcO under low or high concentrations of cytochrome c,"[1]; WT, 0–30 μM cytochrome c",failed to affect RsCcO
same,Effect on RsCcO activity at maximal ligand concentration,"[1]; WT, saturating cytochrome c",no significant effect
CC(C)=CCC/C(C)=C/CC/C(C)=C/CO[P@@](=O)(O)OP(=O)(O)O (stereo in doubt) [farnesyl diphosphate],Effect on RsCcO activity at maximal ligand concentration,"[1]; WT, saturating cytochrome c",no significant effect
"C[C@H](CCC(=O)O)[C@H]1CC[C@H]2[C@@H]3CC[C@@H]4C[C@H](O)CC[C@]4(C)[C@H]3C[C@H](O)[C@]12C [DOC, deoxycholate]",IC50,[1],1400 µM
same,Mode of inhibition with respect to cytochrome c,"[1]; WT, 0–30 μM cytochrome c",noncompetitive inhibition
same,Maximal lowering of RsCcO activity,"[1]; WT, saturating cytochrome c",more than 90%
same,Mode of inhibition with respect to cytochrome c,"RsCcO E101A mutant [2]; E101A mutant, 0–30 μM cytochrome c",noncompetitive inhibition
Nc1ncnc2c1ncn2[C@@H]1O[C@H](COP(=O)(O)OP(=O)(O)O)[C@@H](O)[C@H]1O [ADP],Effect on RsCcO activity at maximal ligand concentration,"[1]; WT, saturating cytochrome c",no significant effect
Cc1cc2nc3c(=O)[nH]c(=O)nc-3n(C[C@H](O)[C@H](O)[C@H](O)COP(=O)(O)OP(=O)(O)OC[C@H]3O[C@@H](n4cnc5c(N)ncnc54)[C@H](O)[C@@H]3O)c2cc1C [FAD],Effect on RsCcO activity at maximal ligand concentration,"[1]; WT, saturating cytochrome c",no significant effect
"Nc1ncnc2c1ncn2[C@@H]1O[C@H](COP(=O)(O)OP(=O)(O)NP(=O)(O)O)[C@@H](O)[C@H]1O [ATP analog, adenosine 5′-(β, γ-imido) triphosphate]",Competition with DOC inhibition of RsCcO,"[1]; WT, 5 mM ATP analog, DOC 0–2 mM, saturating cytochrome c",prevented DOC in the 0–2 mM range from inhibiting RsCcO activity
same,Effect of ligand alone on RsCcO activity,"[1]; WT, 5 mM ligand, saturating cytochrome c",no effect
same,Shape of response in ligand titration,"[1]; WT, saturating cytochrome c",biphasic response
same,Effect on E101A mutant activity,RsCcO E101A mutant [3],very low stimulation and no inhibition of activity
